For assay [1], the target named is Estrogen receptor (Mus musculus) (UniProt O08537+P19785). The assay is described as follows: Relative binding affinity for estrogen receptor. It is filed as protein assay.
Assay [2] concerns the target T1, Progesterone receptor (Oryctolagus cuniculus) (UniProt P06186).
T1 sequence (whole entry): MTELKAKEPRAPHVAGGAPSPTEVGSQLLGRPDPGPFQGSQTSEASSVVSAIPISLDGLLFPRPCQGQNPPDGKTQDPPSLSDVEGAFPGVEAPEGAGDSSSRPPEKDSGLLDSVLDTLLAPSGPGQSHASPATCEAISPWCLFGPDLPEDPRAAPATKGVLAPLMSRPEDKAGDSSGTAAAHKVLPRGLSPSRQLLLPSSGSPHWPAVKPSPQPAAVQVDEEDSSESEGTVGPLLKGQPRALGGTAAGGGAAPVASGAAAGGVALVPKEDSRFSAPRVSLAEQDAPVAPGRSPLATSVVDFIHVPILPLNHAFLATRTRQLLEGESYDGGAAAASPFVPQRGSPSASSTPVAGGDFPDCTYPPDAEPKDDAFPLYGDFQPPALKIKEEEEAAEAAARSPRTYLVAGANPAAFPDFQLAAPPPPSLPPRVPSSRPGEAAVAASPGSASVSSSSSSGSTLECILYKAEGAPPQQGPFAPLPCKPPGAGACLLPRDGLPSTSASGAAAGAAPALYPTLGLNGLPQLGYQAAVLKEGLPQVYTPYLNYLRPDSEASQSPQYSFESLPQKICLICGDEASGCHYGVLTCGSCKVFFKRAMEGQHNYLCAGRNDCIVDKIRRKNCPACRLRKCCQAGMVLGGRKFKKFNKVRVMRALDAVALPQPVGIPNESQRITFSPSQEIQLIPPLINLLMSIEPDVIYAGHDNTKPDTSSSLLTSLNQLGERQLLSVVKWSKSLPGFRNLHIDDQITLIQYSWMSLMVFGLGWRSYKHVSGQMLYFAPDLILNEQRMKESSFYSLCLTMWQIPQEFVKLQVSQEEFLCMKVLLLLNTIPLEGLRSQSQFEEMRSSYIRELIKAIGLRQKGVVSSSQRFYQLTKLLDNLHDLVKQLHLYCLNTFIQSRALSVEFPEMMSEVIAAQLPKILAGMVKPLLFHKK
Briefly: Relative binding affinity for progesterone receptor.

Each structure is given as a SMILES string.

Estrogen receptor (Mus musculus), sequence (O08537 whole entry, looked up): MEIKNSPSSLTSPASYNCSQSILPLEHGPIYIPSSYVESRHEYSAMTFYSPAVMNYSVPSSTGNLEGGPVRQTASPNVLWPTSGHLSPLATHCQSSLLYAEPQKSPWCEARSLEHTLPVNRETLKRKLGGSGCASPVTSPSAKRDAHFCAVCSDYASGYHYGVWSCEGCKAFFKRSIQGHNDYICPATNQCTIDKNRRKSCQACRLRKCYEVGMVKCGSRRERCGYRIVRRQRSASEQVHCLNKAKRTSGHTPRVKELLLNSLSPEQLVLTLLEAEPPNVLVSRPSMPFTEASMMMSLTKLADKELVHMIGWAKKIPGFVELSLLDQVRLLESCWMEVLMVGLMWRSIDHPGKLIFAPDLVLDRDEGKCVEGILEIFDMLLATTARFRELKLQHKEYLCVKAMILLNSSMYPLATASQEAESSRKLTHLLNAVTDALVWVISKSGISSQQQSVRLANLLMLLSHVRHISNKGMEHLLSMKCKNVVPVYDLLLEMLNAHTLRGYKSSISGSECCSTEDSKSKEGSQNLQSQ
Estrogen receptor (Mus musculus), sequence (P19785 whole entry, looked up): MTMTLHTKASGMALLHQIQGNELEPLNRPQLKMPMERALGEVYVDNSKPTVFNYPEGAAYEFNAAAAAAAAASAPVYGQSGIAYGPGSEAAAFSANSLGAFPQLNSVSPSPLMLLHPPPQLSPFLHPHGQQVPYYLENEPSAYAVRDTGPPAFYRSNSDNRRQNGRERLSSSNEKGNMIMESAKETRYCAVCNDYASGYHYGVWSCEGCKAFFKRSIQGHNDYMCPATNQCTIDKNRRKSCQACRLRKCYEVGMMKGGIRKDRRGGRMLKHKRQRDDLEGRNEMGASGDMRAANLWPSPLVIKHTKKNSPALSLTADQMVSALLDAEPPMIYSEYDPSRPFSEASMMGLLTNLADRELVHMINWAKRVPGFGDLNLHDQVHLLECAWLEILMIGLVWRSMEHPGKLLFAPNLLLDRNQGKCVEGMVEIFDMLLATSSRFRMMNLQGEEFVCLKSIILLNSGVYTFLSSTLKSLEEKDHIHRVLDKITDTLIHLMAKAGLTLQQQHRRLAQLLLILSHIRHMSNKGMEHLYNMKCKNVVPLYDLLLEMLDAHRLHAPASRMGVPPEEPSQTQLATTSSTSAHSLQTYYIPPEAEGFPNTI

As for `CC(=O)[C@H]1CC[C@H]2[C@@H]3CCC4=CC(=O)CC[C@]4(C)[C@H]3CC[C@]12C`, the relative binding affinity (RBA) was less than 0.1 in assay [1] and 100 in assay [2].

For `CC(=O)[C@@]1([Se]c2ccccc2)CC[C@H]2[C@@H]3CCC4=CC(=O)CC[C@]4(C)[C@H]3CC[C@@]21C`, the relative binding affinity (RBA) in assay [1] is less than 0.1; in assay [2] it was 2.1.

Turning to `C[C@]12CC[C@H]3[C@@H](CCC4=CC(=O)CC[C@@]43C)[C@@H]1CC[C@@H]2C(=O)C[Se]c1ccccc1`, the relative binding affinity (RBA) in assay [1] was less than 0.1; in assay [2], 59.

The values above are taken from ChEMBL document CHEMBL1122289.
